The target in assay [1] is T1, 5-HT1A receptor (Homo sapiens (Human), UniProt P08908). Nature of the assay: 5-HT1A receptor Gαi1 BRET (G protein trimer dissociation).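 As to all read-outs here: cells transiently co-expressing 5-HT1A receptor, luciferase-tagged Gαi1, Gβ3 and GFP-tagged Gγ9, seeded in 96-well plates for BRET measurement of G protein signaling.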 In kind it is cell-based. The settings on record: 5-HT1A receptor, G protein pathway; for EC50: read-out: Gαi1 BRET EC50. For orientation: In BRET a luciferase serves as donor, and the signal depends on an acceptor being close.
Protocol: (§1) The affinity of the compounds of the present disclosure for the 5-HTIA receptors was determined by the method of radioligand competition experiment. In the first step, a cell membrane component containing specific 5-HTIA receptor was prepared. A 10 cm culture dish was used for transfection with 10 ng of the 5-HTIA receptor and 40 μL of PEI. After 48 hours, the 10 cm culture dish was taken out from the cell incubator and the cultured cells had expressed the 5-HTIA receptor. A vacuum pump was used to suck off the culture medium, 3 mL of lysis buffer was added to each culture dish, and the cells were placed in a 4° C. cold room for 10 minutes. After the cells were detached, the cells were transferred to a 15 mL centrifuge tube and centrifuged at 1500 rpm for 5 minutes at 4° C., and the supernatant was discarded. The cell pellet was transferred to a tissue homogenizer, and 3 mL of lysis buffer was added and fully ground until the cells were broken. Then, cell suspension was equally aliquoted into several EP tubes, centrifuged at 12000 rpm for 5 minutes at 4° C., and the supernatant was discarded. The precipitate was the cell membrane component containing the 5-HT1A receptor. […] First, a standard binding buffer was added to the cell membrane component containing the 5-HT1A receptor, and the cell membrane was disrupted and resuspended with an electric tissue homogenizer. 30 μL of membrane protein suspension was added to each well of a 96-well plate. Then, 30 μL of different drugs were added to the 96-well plate sequentially from bottom to top to ensure that the final drug concentrations were 10^−5 M, 10^−6 M, 10^−7 M, 10^−8 M, 10^−9 M, and 0 M, with two replicates per treatment. Next, 30 μL of [3H]-LSD was added to each well of the 96-well plate. The plate was incubated for 2 hours at room temperature in the dark. Detection was conducted. The machine readout value reflected the amount of [3H]-LSD bound on the membrane, and after further data processing, the affinity Ki values of different compounds for the 5-HTIA receptor were obtained. To examine the downstream G protein signaling pathway mediated by 5-HTIA receptors, on the first day, a 6 cm culture dish was used for transfection with 1 μg of 5-HTIA receptors, 1 μg of Gαi1 containing C-terminal seaweed luciferase (Gαi1-Rluc), 1 μg of Gβ3, 1 μg of Gγ9 containing C-terminal green fluorescent protein (Gγ9-GFP), and 16 μL of PEI. The next day, the confluent cells of a 6 cm culture dish were digested and reseeded into a 96-well plate with 100 μL of culture medium was added to each well. On the third day, the drugs were added for test. The 96-well plate was taken out from the cell incubator to decant the culture medium, 40 μL of the substrate coelenterazine 400a (final concentration of 5 μM) was added to each well, and then 20 μL of different drugs were added sequentially from left to right to ensure that the final concentration of the drug decreased gradually from bottom to top, with two replicates per treatment. Finally, the prepared samples were loaded on machine for test. The machine readout value reflected the dissociation of G protein trimer, and thereby indicated the degree of activation of the G protein signaling pathway downstream of the 5-HTIA receptors.
The target of assay [2] is T2, 5-HT2A receptor (Homo sapiens (Human), UniProt P28223). Nature of the assay: 5-HT2A receptor Gαq BRET (G protein trimer dissociation).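 As to all read-outs here: cells transfected with 5-HT2A receptor, Gαq-Rluc, Gβ3 and Gγ9-GFP, BRET read with coelenterazine 400a (5 µM) across a compound dilution series in duplicate.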 In kind it is cell-based. The settings on record: for EC50: 5-HT2A receptor, G protein pathway, read-out: Gαq BRET EC50; for Emax: read-out: Gαq BRET (Emax %).
Protocol: (§2) To examine the downstream G protein signaling pathway mediated by 5-HT2A receptors, on the first day, a 6 cm culture dish was used for transfection with 1 μg of 5-HT2A receptors, 1 μg of Gαq containing C-terminal seaweed luciferase (Gαq-Rluc), 1 μg of Gβ3, 1 μg of Gγ9 containing C-terminal green fluorescent protein (Gγ9-GFP), and 16 μL of PEI. At the same time, in order to examine the downstream β-arrestin2 signaling pathway mediated by 5-HT2A receptors, on the first day, a 6 cm culture dish was used for transfection with 500 μg of 5-HT2A receptors containing C-terminal seaweed luciferase (5-HT2A-Rluc), 500 μg of G protein-coupled receptor kinase 2 (GRK2), 2500 μg of β-arrestin2 containing N-terminal green fluorescent protein (GFP2-ARRB2), and 14 μL of PEI. The next day, the confluent cells of a 6 cm culture dish were digested and reseeded into a 96-well plate with 100 μL of culture medium was added to each well. On the third day, the drugs were added for test. The 96-well plate was taken out from the cell incubator to decant the culture medium, 40 μL of the substrate coelenterazine 400a (final concentration of 5 μM) was added to each well, and then 20 μL of different drugs were added sequentially from left to right to ensure that the final concentration of the drug decreased gradually from bottom to top, with two replicates per treatment. Finally, the prepared samples were loaded on machine for test. The machine readout value reflected the recruitment of β-arrestin2 to the membrane or the dissociation of G protein trimer. The former indicated the degree of activation of the β-arrestin2 signaling pathway downstream of the 5-HT2A receptors, and the latter indicated the degree of activation of the G protein signaling pathway downstream of the 5-HT2A receptors.
The target of assay [3] is T1, 5-HT1A receptor. Nature of the assay: Affinity for 5-HT1A receptors, radioligand competition with [3H]-LSD.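 Also: membranes from cells transiently transfected with 5-HT1A receptor, bound [3H]-LSD displaced by compound at 10^-9 to 10^-5 M, 2 h incubation at room temperature in the dark.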 In kind it is binding. The settings on record: 293T membrane transiently expressing 5-HT1A; [3H]-LSD; read-out: 5-HT1A affinity Ki. Background: Displacement assays read how much labelled ligand stays bound in the presence of the test substance.
Protocol: as §1
Assay [4] deals with T3, dopamine D2 receptors (Homo sapiens (Human), UniProt P14416). Nature of the assay: Dopamine D2 receptor β-arrestin2 BRET (recruitment).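 As to all read-outs here: cells co-expressing Rluc-fused D2 receptor, GRK2 and GFP2-fused β-arrestin2, BRET read with coelenterazine 400a after adding drug over a concentration series, in duplicate wells.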 The assay is classed as cell-based. The settings on record: for EC50: D2 receptor, β-arrestin2 pathway, read-out: β-arrestin2 BRET EC50; for Emax: read-out: β-arrestin2 BRET (Emax %).
Protocol: (§3) To examine the downstream G protein signaling pathway mediated by dopamine D2 receptors, on the first day, a 6 cm culture dish was used for transfection with 1 μg of dopamine D2 receptors, 1 μg of Gαi1 containing a C-terminal seaweed luciferase (Gαi1-Rluc), 1 μg of Gβ3, 1 μg of Gγ9 containing C-terminal green fluorescent protein (Gγ9-GFP), and 16 μL of PEI. At the same time, in order to examine the downstream β-arrestin2 signaling pathway mediated by dopamine D2 receptors, on the first day, a 6 cm culture dish was used for transfection with 500 μg of dopamine D2 receptors containing C-terminal seaweed luciferase (D2-Rluc), 500 μg of G protein-coupled receptor kinase 2 (GRK2), 2500 μg of β-arrestin2 containing N-terminal green fluorescent protein (GFP2-ARRB2) mixed with 14 μL of PEI. The next day, the confluent cells of a 6 cm culture dish were digested and reseeded into a 96-well plate with 100 μL of culture medium added to each well. On the third day, the drugs were added for test. The 96-well plate was taken out from the cell incubator to decant the culture medium, 40 μL of the substrate coelenterazine 400a (final concentration of 5 μM) was added to each well, and then 20 μL of different drugs were added sequentially from left to right to ensure that the final concentration of the drug decreased gradually from bottom to top, with two replicates per treatment. Finally, the prepared samples were loaded on machine for test. The machine readout value reflected the recruitment of β-arrestin2 to the membrane or the dissociation of G protein trimer. The former indicated the degree of activation of the β-arrestin2 signaling pathway downstream of the dopamine D2 receptors, and the latter indicated the degree of activation of the G protein signaling pathway downstream of the dopamine D2 receptors.
Assay [5] addresses T2, 5-HT2A receptor. Nature of the assay: 5-HT2A receptor β-arrestin2 BRET (recruitment).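 As to all read-outs here: cells co-expressing Rluc-tagged 5-HT2A receptor, GRK2 and GFP2-tagged β-arrestin2, read by BRET with coelenterazine 400a (5 µM) across graded drug concentrations in duplicate, signal reflecting β-arrestin2 membrane recruitment.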 The settings on record: 5-HT2A receptor, β-arrestin2 pathway; for EC50: read-out: β-arrestin2 BRET EC50. In kind it is cell-based.
Protocol: as §2
For assay [6], the target named is T2, 5-HT2A receptor. Nature of the assay: Affinity for 5-HT2A receptors, radioligand competition with [3H]-ketanserin. The settings on record: 293T membrane transiently expressing 5-HT2A. In kind it is binding.
Protocol: The affinity of the compounds of the present disclosure for the 5-HT2A receptors was determined by the method of radioligand competition experiment. In the first step, a cell membrane component containing specific 5-HT2A receptor was prepared. A 10 cm dish was used for transfection with 10 ng of the 5-HT2A receptor and 40 μL of PEI. After 48 hours, the 10 cm dish was taken out from the cell incubator and the cultured cells had expressed the 5-HT2A receptor. A vacuum pump was used to suck off the culture medium, 3 mL of lysis buffer was added to each culture dish, and the cells were placed in a 4° C. cold room for 10 minutes. After the cells were detached, the cells were transferred to a 15 mL centrifuge tube and centrifuged at 1500 rpm for 5 minutes at 4° C., and the supernatant was discarded. The cell pellet was transferred to a tissue homogenizer, and 3 mL of lysis buffer was added and fully ground until the cells were broken. Then, cell suspension was equally aliquoted into several EP tubes, centrifuged at 12000 rpm for 5 minutes at 4° C., and the supernatant was discarded. The precipitate was the cell membrane component containing the 5-HT2A receptor. […] First, a standard binding buffer was added to the cell membrane component containing the 5-HT2A receptor, and the cell membrane was disrupted and resuspended with an electric tissue homogenizer. 30 μL of membrane protein suspension was added to each well of a 96-well plate. Then, 30 μL of different drugs were added to the 96-well plate sequentially from bottom to top to ensure that the final drug concentrations were 10^−5 M, 10^−6 M, 10^−7 M, 10^−8 M, 10^−9 M, and 0 M, with two replicates per treatment. Next, 30 μL of [3H]-ketanserin was added to each well of the 96-well plate. The plate was incubated for 2 hours at room temperature in the dark. Detection was conducted. The machine readout value reflected the amount of [3H]-ketanserin bound on the membrane, and after further data processing, the affinity Ki values of different compounds for the 5-HT2A receptor were obtained.
Assay [7] deals with T3, dopamine D2 receptors. Nature of the assay: Affinity for dopamine D2 receptors, radioligand competition with [3H]-Methylspiperone. The settings on record: 293T membrane transiently expressing D2. In kind it is binding.
Protocol: The affinity of the compounds of the present disclosure for the dopamine D2 receptors was determined by the method of radioligand competition experiment. In the first step, a cell membrane component containing specific dopamine D2 receptors was prepared. A 10 cm culture dish was used for transfection with 10 ng of the dopamine D2 receptors and 40 μL of polyethylenimine (PEI hereafter). After 48 hours, the 10 cm culture dish was taken out from the cell culture incubator and the cultured cells had expressed the dopamine D2 receptors. A vacuum pump was used to suck off the culture medium, 3 mL of lysis buffer was added to each culture dish, and the cells were placed in a 4° C. cold room for 10 minutes. After the cells were detached, the cells were transferred to a 15 mL centrifuge tube and centrifuged at 1500 rpm for 5 minutes at 4° C., and the supernatant was discarded. The cell pellet was transferred to a tissue homogenizer, and 3 mL of lysis buffer was added and fully ground until the cells were broken. Then, cell suspension was equally aliquoted into several EP tubes, centrifuged at 12000 rpm for 5 minutes at 4° C., and the supernatant was discarded. The precipitate was the cell membrane component containing the dopamine D2 receptors. […] First, a standard binding buffer was added to the cell membrane component containing the dopamine D2 receptors, and the cell membrane was disrupted and resuspended with an electric tissue homogenizer. 30 μL of membrane protein suspension was added to each well of a 96-well plate. Then, 30 μL of different drugs were added to the 96-well plate sequentially from bottom to top to ensure that the final drug concentrations were 10^−5 M, 10^−6 M, 10^−7 M, 10^−8 M, 10^−9 M, and 0 M, with two replicates per treatment. Next, 30 μL of [3H]-Methylspiperone was added to each well of the 96-well plate. The plate was incubated for 2 hours at room temperature in the dark. Detection was conducted. The machine readout value reflected the amount of [3H]-Methylspiperone bound on the membrane, and after further data processing, the affinity Ki values of different compounds for the dopamine D2 receptors were obtained.
Assay [8] concerns the target T3, dopamine D2 receptors. Kind of assay: Dopamine D2 receptor Gαi1 BRET (G protein trimer dissociation).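 As to all read-outs here: transfected cells co-expressing D2 receptor, Gαi1-Rluc, Gβ3 and Gγ9-GFP, BRET with coelenterazine 400a at 5 µM read as G protein trimer dissociation, graded drug concentrations in duplicate.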 The assay is classed as cell-based. The settings on record: for EC50: D2 receptor, G protein pathway, read-out: Gαi1 BRET EC50; for Emax: read-out: Gαi1 BRET (Emax %).
Protocol: as §3

As a reminder, the Emax is the greatest response seen or fitted, relative to the assay's reference. What is called EC50 is the midpoint of the concentration-response curve. By Ki is commonly meant the equilibrium dissociation constant of an inhibitor or competing ligand from its target.

SMILES strings stand for the structures.

T3 sequence (P14416 whole entry, the tested form may be a part): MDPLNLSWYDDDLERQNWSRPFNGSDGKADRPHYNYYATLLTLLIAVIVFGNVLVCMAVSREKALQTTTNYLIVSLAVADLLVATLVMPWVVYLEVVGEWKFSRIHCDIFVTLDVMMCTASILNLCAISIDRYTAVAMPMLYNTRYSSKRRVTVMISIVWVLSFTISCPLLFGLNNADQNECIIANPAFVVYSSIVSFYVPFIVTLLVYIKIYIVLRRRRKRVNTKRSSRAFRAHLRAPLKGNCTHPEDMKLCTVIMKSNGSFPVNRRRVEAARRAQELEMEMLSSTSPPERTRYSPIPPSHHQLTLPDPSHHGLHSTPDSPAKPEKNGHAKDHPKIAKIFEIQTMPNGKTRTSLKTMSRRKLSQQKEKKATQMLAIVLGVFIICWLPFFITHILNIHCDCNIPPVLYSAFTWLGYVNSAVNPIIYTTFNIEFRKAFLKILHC
T1 sequence (P08908 whole entry): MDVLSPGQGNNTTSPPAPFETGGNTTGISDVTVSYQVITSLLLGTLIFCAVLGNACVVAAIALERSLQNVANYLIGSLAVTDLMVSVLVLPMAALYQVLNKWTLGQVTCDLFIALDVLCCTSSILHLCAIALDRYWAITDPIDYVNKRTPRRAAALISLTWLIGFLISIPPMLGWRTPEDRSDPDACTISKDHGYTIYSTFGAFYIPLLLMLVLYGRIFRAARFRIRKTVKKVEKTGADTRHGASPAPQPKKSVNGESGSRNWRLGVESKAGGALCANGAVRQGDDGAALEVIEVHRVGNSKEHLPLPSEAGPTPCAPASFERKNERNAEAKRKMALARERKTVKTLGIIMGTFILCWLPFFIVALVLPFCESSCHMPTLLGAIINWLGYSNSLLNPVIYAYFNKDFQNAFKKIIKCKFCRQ
T2 sequence (P28223 whole entry): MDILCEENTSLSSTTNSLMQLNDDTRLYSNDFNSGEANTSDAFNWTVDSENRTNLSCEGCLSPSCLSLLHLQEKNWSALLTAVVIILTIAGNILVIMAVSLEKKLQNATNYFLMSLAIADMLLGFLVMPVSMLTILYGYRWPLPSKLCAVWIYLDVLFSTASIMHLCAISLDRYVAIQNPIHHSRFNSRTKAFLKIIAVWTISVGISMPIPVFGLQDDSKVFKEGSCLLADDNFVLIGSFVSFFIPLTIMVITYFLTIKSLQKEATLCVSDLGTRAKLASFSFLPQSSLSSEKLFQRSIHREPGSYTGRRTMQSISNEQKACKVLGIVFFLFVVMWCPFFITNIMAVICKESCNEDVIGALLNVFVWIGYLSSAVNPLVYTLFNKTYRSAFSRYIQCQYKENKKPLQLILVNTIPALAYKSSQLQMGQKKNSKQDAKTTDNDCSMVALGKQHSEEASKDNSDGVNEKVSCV

In the case of `CN(C)C(=O)N[C@H]1CC[C@H](CCN2CCN3c4cccc5scc(c45)CC3C2)CC1` (stereo partly drawn) [Compound I-27, 1,1-Dimethyl-3-(4-(2-(6a, 7,9,10-Tetrahydropyrazino[1,2-a]Thieno [4,3,2-De]Quinolin-8 (6H)-Yl)Ethyl) Trans-Cyclohexyl) Urea], the Emax at 5-HT1A receptor [1] came out at 64%; on 5-HT2A receptor [2], 9.57%; on dopamine D2 receptors [4] it was 52.1%; at 5-HT2A receptor [5], 34.7%; on dopamine D2 receptors [8], 73.6%. Moreover, the EC50 at 5-HT1A receptor [1] was 164 nM; on 5-HT2A receptor [2] it was 158 nM; on dopamine D2 receptors [4], 10.2 nM; on 5-HT2A receptor [5] it was 13.8 nM; on dopamine D2 receptors [8], 3.87 nM. Besides, the Ki at 5-HT1A receptor [3] was 160 nM; on 5-HT2A receptor [6] it was 210 nM; on dopamine D2 receptors [7] it was 80 nM.
With `O=C(N[C@H]1CC[C@H](CCN2CCN3c4cccc5scc(c45)CC3C2)CC1)N1CCCCC1` (stereo partly drawn) [Compound I-29, N-(4-(2-(6a,7,9,10-Tetrahydropyrazino[1,2-a]Thieno [4,3,2-De]Quinolin-8 (6H)-Yl)Ethyl) Trans-Cyclohexyl) Piperidine-1-Carboxamide], the Emax at 5-HT1A receptor [1] turned out to be 62%; on 5-HT2A receptor [2], 8.61%; at dopamine D2 receptors [4], 31.8%; at 5-HT2A receptor [5], 21.8%; at dopamine D2 receptors [8] it was 45.2%. Further, the EC50 at 5-HT1A receptor [1] amounted to 1480 nM; on 5-HT2A receptor [2], 299 nM; at dopamine D2 receptors [4], 102 nM; on 5-HT2A receptor [5], 30.2 nM; on dopamine D2 receptors [8], 32.2 nM. Also, the Ki on 5-HT1A receptor [3] is 120 nM; on 5-HT2A receptor [6], 450 nM; at dopamine D2 receptors [7], 180 nM.

For the origin of these results see US20240383913A1, “THIOPHENE RING COMPOUND, PREPARATION METHOD THEREFOR AND APPLICATION THEREOF” (CENTER FOR EXCELLENCE IN MOLECULAR CELL SCIENCE, CHINESE …, priority 2021, published 2024).
